Experimental data published in ChEMBL document CHEMBL4325913, “Norharmane as a potential chemical entity for development of anticancer drugs” (Eur J Med Chem, 2019).

Legend:
[1] = tested on: HepG2; experiment: Antiproliferative activity against human HepG2 cells at 4 uM after 48 hrs by MTT assay relative to control; assay type: functional
[2] = tested on: HepG2; experiment: Antiproliferative activity against human HepG2 cells at 5 uM after 48 hrs by MTT assay relative to control; assay type: functional
[3] = biological target: NAD-dependent protein deacylase sirtuin-5, mitochondrial (Homo sapiens) (UniProt Q9NXA8); experiment: Inhibition of SIRT5 (unknown origin) at 100 uM relative to control
[4] = biological target: NAD-dependent protein deacylase sirtuin-5, mitochondrial (Homo sapiens) (UniProt Q9NXA8); experiment: Inhibition of SIRT5 (unknown origin) at 30 uM relative to control
[5] = tested on: Lewis lung carcinoma cell line; experiment: Antitumor activity against mouse LLC cells implanted in mouse assessed as tumor growth inhibition at 7.5 mg/kg, ip qd treated for 7 consecutive days starting from 24 hrs post tumor inoculum relative to control; assay type: functional; details: read-out: TGI
[6] = tested on: HGC-27; experiment: Cytotoxicity against human HGC27 cells assessed as reduction in cell viability after 48 hrs by MTT assay; assay type: functional, cell-based; details: HGC-27, 48 h
[7] = tested on: CCRF S-180; experiment: Antitumor activity against mouse S180 cells implanted in mouse assessed as tumor growth inhibition at 7.5 mg/kg, ip qd treated for 7 consecutive days starting from 24 hrs post tumor inoculum relative to control; assay type: functional; details: CCRF S-180, ip, read-out: TGI
[8] = tested on: SMMC-7721; experiment: Antiproliferative activity against human SMMC7721 cells after 48 hrs by MTT assay; assay type: functional, cell-based; details: SMMC-7721, 48 h

NAD-dependent protein deacylase sirtuin-5, mitochondrial (Homo sapiens), sequence (Q9NXA8 37-310 limits assumed): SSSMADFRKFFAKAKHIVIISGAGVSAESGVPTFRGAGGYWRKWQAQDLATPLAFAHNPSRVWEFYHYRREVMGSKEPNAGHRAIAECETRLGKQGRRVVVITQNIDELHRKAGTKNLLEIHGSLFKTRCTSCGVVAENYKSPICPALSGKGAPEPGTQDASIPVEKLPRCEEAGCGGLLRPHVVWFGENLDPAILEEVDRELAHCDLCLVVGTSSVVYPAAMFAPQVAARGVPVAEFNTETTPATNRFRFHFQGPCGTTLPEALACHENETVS

Molecule `CCCN(Cc1ccc(C(=O)NO)cc1)C(=O)c1cc2c([nH]c3ccccc32)c(-c2ccc(OC)cc2)n1` has an Activity [1] of 61.8% and an Activity [2] of 34.5%.
`O=C(NCCn1c2ccccc2c2ccncc21)Nc1ccc(C(=O)O)cc1` showed an inhibition [3] of 52% and an inhibition [4] of 35%.
With `COc1cc(-c2nc(Cn3cc(CN4C(=O)c5ccc(C)cc5C4=O)nn3)cc3c2[nH]c2ccccc23)cc(OC)c1OC` the inhibition in vivo at 7.5 mg/kg [5] was 46.9%, the IC50 [6] was 5.44 µM and the inhibition in vivo at 7.5 mg/kg [7] was 40%.
For `Cc1nc(C(=O)NCCCCCNC(=O)c2ccccc2O)cc2c1[nH]c1ccccc12`, the IC50 [8] was 6.97 µM.
